Laboratory results: ChEMBL document CHEMBL1201862, “PubChem BioAssay data set” (2004)
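These data come from cells grown in 96-well plates and exposed to compound for 48 hours at five concentrations. Abbreviation: GI50, concentration required for 50% inhibition of growth.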 Calls of active or inactive are those of the source. No stated cut-off is given here; in the data, active = GI50 up to about 1.1 µM and inactive = higher. *1 amine or outer side, *2 acyl side, *3 side chain or, on linkers, in order; H or OH if unused. Where a SMILES comes first, the peptide text is derived from it. Bridges are numbered along the chain shown (N, C = ends). Roman numbers before positions name the chains, in order. [ ]: non-standard residue; d: D form. Actinocin(1to9) = Cc1c2oc3c(C)ccc(C(=O)[*:2])c3nc-2c(C(=O)[*:1])c(N)c1=O; NMeV = CN[CH](C(=O)O)C(C)C; Sar = CNCC(=O)O

Experiments:
Experiment in all cases: NCI tumour cell line growth inhibition, 48 h
786-0 = tested on: 786-0
A549 = tested on: A549
ACHN = tested on: ACHN
CCRF-CEM = tested on: CCRF-CEM
DU-145 = tested on: DU-145
HL-60 = tested on: HL-60
IGROV-1 = tested on: IGROV-1
LOX IMVI = tested on: LOX IMVI
M14 = tested on: M14
MCF7 = tested on: MCF7
MDA-N = tested on: MDA-N
Malme-3M = tested on: Malme-3M
NCI-H226 = tested on: NCI-H226
NCI/ADR-RES = tested on: NCI/ADR-RES
OVCAR-3 = tested on: OVCAR-3
SF-268 = tested on: SF-268
SF-295 = tested on: SF-295
SK-OV-3 = tested on: SK-OV-3
T47D = tested on: T47D
UACC-257 = tested on: UACC-257

SMILES	GI50 (786-0)	GI50 (A549)	GI50 (ACHN)	GI50 (CCRF-CEM)	GI50 (DU-145)	GI50 (HL-60)	GI50 (IGROV-1)	GI50 (LOX IMVI)	GI50 (M14)	GI50 (MCF7)	GI50 (MDA-N)	GI50 (Malme-3M)	GI50 (NCI-H226)	GI50 (NCI/ADR-RES)	GI50 (OVCAR-3)	GI50 (SF-268)	GI50 (SF-295)	GI50 (SK-OV-3)	GI50 (T47D)	GI50 (UACC-257)
O=C(CSc1ncnc2[nH]cnc12)c1ccccc1	> 100 µM (inactive)	> 100 µM (inactive)	> 100 µM (inactive)	> 65.8 µM (inactive)	> 100 µM (inactive)	> 100 µM (inactive)	> 100 µM (inactive)	79.4 µM (inactive)	> 88.3 µM (inactive)	> 100 µM (inactive)	86.3 µM (inactive)	> 100 µM (inactive)	> 100 µM (inactive)	96.4 µM (inactive)	> 100 µM (inactive)	> 100 µM (inactive)	> 100 µM (inactive)	> 100 µM (inactive)	> 100 µM (inactive)	> 100 µM (inactive)
CC(C)OP(=O)(OC(C)C)C(C(C)C)N(C)/C(F)=N/C(F)(F)F (stereo not given)	> 100 µM (inactive)	> 100 µM (inactive)	> 100 µM (inactive)	> 100 µM (inactive)	> 100 µM (inactive)	31 µM (inactive)	> 100 µM (inactive)	> 100 µM (inactive)	> 100 µM (inactive)	> 100 µM (inactive)	> 100 µM (inactive)	> 100 µM (inactive)	> 100 µM (inactive)	> 100 µM (inactive)	> 100 µM (inactive)	> 100 µM (inactive)	> 100 µM (inactive)	> 100 µM (inactive)	> 100 µM (inactive)	> 100 µM (inactive)
CC(C)NC(=O)OCc1c(COC(=O)NC(C)C)c(-c2cc[n+](COC(=O)C3CC3)cc2)n2c1CCC2	> 100 µM (inactive)	> 100 µM (inactive)	32.4 µM (inactive)	> 100 µM (inactive)	> 100 µM (inactive)	86.7 µM (inactive)	> 100 µM (inactive)	> 100 µM (inactive)	> 100 µM (inactive)	> 100 µM (inactive)	> 100 µM (inactive)	> 100 µM (inactive)	> 100 µM (inactive)	> 100 µM (inactive)	> 100 µM (inactive)	> 100 µM (inactive)	> 100 µM (inactive)	> 100 µM (inactive)	> 100 µM (inactive)	> 100 µM (inactive)
NC1=Nc2cc(Cl)ccc2Sc2nc3ccccc3n21	14.2 µM (inactive)	> 24.2 µM (inactive)	> 100 µM (inactive)	1.22 µM (inactive)	> 100 µM (inactive)	2.39 µM (inactive)	4.7 µM (inactive)	4.4 µM (inactive)	2.52 µM (inactive)	> 59.2 µM (inactive)	3.44 µM (inactive)	> 100 µM (inactive)	2.86 µM (inactive)	> 100 µM (inactive)	> 100 µM (inactive)	> 61.5 µM (inactive)	> 95.7 µM (inactive)	> 100 µM (inactive)	> 33.8 µM (inactive)	5.83 µM (inactive)
CC1(c2nc3ccccc3[nH]2)CCC(C(=O)O)C(C)(C)O1 (stereo not given)	> 100 µM (inactive)	> 100 µM (inactive)	> 100 µM (inactive)	> 100 µM (inactive)	> 100 µM (inactive)	> 100 µM (inactive)	> 100 µM (inactive)	> 100 µM (inactive)	> 100 µM (inactive)	> 100 µM (inactive)	> 100 µM (inactive)	> 100 µM (inactive)	> 100 µM (inactive)	> 100 µM (inactive)	> 100 µM (inactive)	> 100 µM (inactive)	> 100 µM (inactive)	> 100 µM (inactive)	> 100 µM (inactive)	> 100 µM (inactive)
O=C(C(=O)n1ccc2ccccc21)c1c[nH]c2ccccc12	> 10 µM (inactive)	> 10 µM (inactive)	> 10 µM (inactive)	> 10 µM (inactive)	> 10 µM (inactive)	> 10 µM (inactive)	> 10 µM (inactive)	> 10 µM (inactive)	> 10 µM (inactive)	> 10 µM (inactive)	> 10 µM (inactive)	> 10 µM (inactive)	> 10 µM (inactive)	> 10 µM (inactive)	> 10 µM (inactive)	> 10 µM (inactive)	> 10 µM (inactive)	> 10 µM (inactive)	> 10 µM (inactive)	> 10 µM (inactive)
COC(=O)C(Cc1c[nH]c2ccccc12)NP(=O)(O)OCC1OC(n2cc(Br)c(=O)[nH]c2=O)CC1O (stereo not given)	> 100 µM (inactive)	> 100 µM (inactive)	> 100 µM (inactive)	> 100 µM (inactive)	> 100 µM (inactive)	> 100 µM (inactive)	> 100 µM (inactive)	> 100 µM (inactive)	> 100 µM (inactive)	> 100 µM (inactive)	> 100 µM (inactive)	> 100 µM (inactive)	> 100 µM (inactive)	> 100 µM (inactive)	> 100 µM (inactive)	> 100 µM (inactive)	> 100 µM (inactive)	> 100 µM (inactive)	> 100 µM (inactive)	> 100 µM (inactive)
Cc1ccc(N2C(N)=C(C#N)C(C#N)(C#N)C2c2ccccc2)cc1 (stereo not given)	14.2 µM (inactive)	16.6 µM (inactive)	14.2 µM (inactive)	3 µM (inactive)	14.9 µM (inactive)	2.75 µM (inactive)	6.67 µM (inactive)	11.5 µM (inactive)	12.3 µM (inactive)	4.95 µM (inactive)	3.08 µM (inactive)	11.5 µM (inactive)	19.5 µM (inactive)	17 µM (inactive)	13.7 µM (inactive)	24.9 µM (inactive)	18.9 µM (inactive)	16.7 µM (inactive)	5.74 µM (inactive)	15.6 µM (inactive)
CCC(C)C1NC(=O)C(NC(=O)c2c3nc4c(C(=O)NC5C(=O)NC(C(C)C)C(=O)N6CCCC6C(=O)N(C)CC(=O)N(C)C(C(C)C)C(=O)OC5C)ccc(C)c4oc-3c(C)c(=O)c2N)C(C)OC(=O)C(C(C)C)N(C)C(=O)CN(C)C(=O)C2CCCN2C1=O (stereo not given) (I: TIP[Sar][NMeV] / II: TVP[Sar][NMeV]; ester I:1-I:C, II:1-II:C; linker I:N-II:N via Actinocin(1to9); configuration not given here)	0.00042 µM (active)	0.000431 µM (active)	0.000647 µM (active)	0.000421 µM (active)	0.00475 µM (active)	0.000513 µM (active)	0.00393 µM (active)	< 0.0001 µM (active)	0.00269 µM (active)	< 0.0001 µM (active)	0.000135 µM (active)	0.000689 µM (active)	0.0101 µM (active)	0.156 µM (active)	0.0185 µM (active)	0.000916 µM (active)	0.000353 µM (active)	0.0152 µM (active)	0.00183 µM (active)	0.00119 µM (active)
